{"source": "patent US20030092684A1", "about": "“Compositions and methods for treating hemorrhagic virus infections and other disorders” (priority 1999, published 2003)", "key": {"[1]": {"system": "Marburg virus strain Popp", "design": "species or system guinea-pigs", "conditions": "guinea pig, in vivo"}, "[2]": {"system": "mice with the SEB-induced septic shock", "design": "species or system Balb/c mice", "conditions": "mouse, in vivo"}, "[3]": {"system": "TNF-α and IL-1β", "experiment": "Serum TNF-α and IL-1β in Dengue infected mice (Example 5)", "assay_type": "in vivo, BALB/c mice", "conditions": "100 μg orally twice per day from day 3 until day 8"}, "[4]": {"system": "Dengue virus, type 2", "design": "species or system BALB/c mice", "conditions": "mouse, in vivo, po"}, "[5]": {"system": "IL-1RA and sTNFrl", "experiment": "IL-1RA and sTNFrl in human donor serum after oral antibiotic stimulation", "assay_type": "in vivo", "conditions": "after stimulation, 2 persons, on the 24th hour"}, "[6]": {"conditions": "7 day period without viral infection"}, "[7]": {"system": "Mononuclear human cells", "experiment": "In vitro activation of mononuclear human cells by antibiotics: IL-1RA and sTNFrI production", "assay_type": "cell-based", "conditions": "0.06 mg/ml, activation for 2 hours"}, "[8]": {"system": "TNF-α and IL-1β", "experiment": "Serum TNF and IL-1 in Dengue infected mice (Example 4)", "assay_type": "in vivo, BALB/c mice", "conditions": "for IL-1 / TNF: 20 mg/kg orally twice per day from day -3 until day 8"}, "[9]": {"conditions": "58 mg/kg i.m. during 17 day period without virus injection"}, "[10]": {"system": "Lassa virus strain Josiah", "design": "species or system BALB/c mice", "conditions": "mouse, in vivo"}, "[11]": {"system": "Dengue virus type 2", "experiment": "Dengue virus infection treated with tetracycline compounds (Example 4): mortality", "assay_type": "in vivo, BALB/c mice", "conditions": "20 mg/kg orally twice per day from day -3 until day 8"}}, "note": "“And” between values parts separate entries of the source, which are not always exact repeats. Identical values can stand only once. Like-named read-outs stand apart in the source and are kept apart here.", "data": [{"smiles": "CN(C)C1C(O)=C(C(N)=O)C(=O)C2(O)C(O)=C3C(=O)c4c(O)cccc4C(C)(O)C3CC12", "note": "(stereo not drawn) [Tetracycline, 4-dimethylamino-1,4,4a,5,5a,6-11,12a-octahydro-3,6,10,12,12a-pentahydroxy-6-methyl-1,11-dioxo-2-naphthacenecarboxamide]", "values": [{"measurement": "m.t.d. (mean time to death)", "setting": "[1]", "value": "8.75 and 8.06 and 7.91"}, {"measurement": "mice survived 96 hours postinduction", "setting": "[2]", "value": "About 20%"}, {"measurement": "IL-1", "setting": "[3]; day 0", "value": 6.0, "unit": "pg/mL"}, {"measurement": "TNF", "setting": "[3]; day 0", "value": 7.8, "unit": "pg/mL"}, {"measurement": "IL-1", "setting": "[3]; day 1", "value": 12.0, "unit": "pg/mL"}, {"measurement": "TNF", "setting": "[3]; day 1", "value": 13.8, "unit": "pg/mL"}, {"measurement": "IL-1", "setting": "[3]; day 3", "value": 36.0, "unit": "pg/mL"}, {"measurement": "TNF", "setting": "[3]; day 3", "value": 38.2, "unit": "pg/mL"}, {"measurement": "IL-1", "setting": "[3]; day 5", "value": 48.6, "unit": "pg/mL"}, {"measurement": "TNF", "setting": "[3]; day 5", "value": 56.2, "unit": "pg/mL"}, {"measurement": "IL-1", "setting": "[3]; day 6", "value": 62.4, "unit": "pg/mL"}, {"measurement": "TNF", "setting": "[3]; day 6", "value": 156.8, "unit": "pg/mL"}, {"measurement": "IL-1", "setting": "[3]; day 12", "value": 15.6, "unit": "pg/mL"}, {"measurement": "TNF", "setting": "[3]; day 12", "value": 18.0, "unit": "pg/mL"}, {"measurement": "IL-1", "setting": "[3]; day 21", "value": 5.8, "unit": "pg/mL"}, {"measurement": "TNF", "setting": "[3]; day 21", "value": 7.4, "unit": "pg/mL"}, {"measurement": "Survived/died", "setting": "[4]", "value": "9/11"}, {"measurement": "m.t.d. (average lifetime)", "setting": "[4]", "value": "8.40 ± 0.73"}, {"measurement": "IL-1RA in the donor serum", "setting": "[5]", "value": "130 ± 6.8", "unit": "pg/mL"}, {"measurement": "sTNFrl in the donor serum", "setting": "[5]", "value": "580 ± 18.2", "unit": "pg/mL"}, {"measurement": "toxicity to control groups", "setting": "[6]", "value": "not toxic"}, {"measurement": "death", "setting": "[6]; of 20 mice", "value": 0}, {"measurement": "survival", "setting": "[6]; of 20 mice", "value": 20}, {"measurement": "IL-1RA", "setting": "[7]; 0 hours", "value": "22 + 1.4 pg/ml"}, {"measurement": "sTNFrI", "setting": "[7]; 0 hours", "value": "19 + 1.2 pg/ml"}, {"measurement": "IL-1RA", "setting": "[7]; 3 hours", "value": "86 + 4.6 pg/ml"}, {"measurement": "sTNFrI", "setting": "[7]; 3 hours", "value": "185 + 8.4 pg/ml"}, {"measurement": "IL-1RA", "setting": "[7]; 6 hours", "value": "186 + 8.2 pg/ml"}, {"measurement": "sTNFrI", "setting": "[7]; 6 hours", "value": "204 + 9.2 pg/ml"}, {"measurement": "IL-1RA", "setting": "[7]; 24 hours", "value": "140 + 7.6 pg/ml"}, {"measurement": "sTNFrI", "setting": "[7]; 24 hours", "value": "201 + 8.6 pg/ml"}, {"measurement": "increase of the concentration of TNF", "setting": "[8]; 20 mg/kg orally twice per day", "value": 2, "unit": "fold"}, {"measurement": "level of the cytokines in the serum versus control A2 group", "setting": "[8]; 20 mg/kg twice per day from day -3 until day 8", "value": "statistically lower"}, {"measurement": "increase of the concentration of IL-1", "setting": "[8]; by day 5 of the disease, 20 mg/kg orally twice per day", "value": 10, "unit": "fold"}, {"measurement": "IL-1", "setting": "[8]; day 0", "value": 6.8, "unit": "pg/mL"}, {"measurement": "IL-1", "setting": "[8]; day 1", "value": 10.8, "unit": "pg/mL"}, {"measurement": "IL-1", "setting": "[8]; day 3", "value": 46.8, "unit": "pg/mL"}, {"measurement": "TNF", "setting": "[8]; day 3", "value": 14.0, "unit": "pg/mL"}, {"measurement": "IL-1", "setting": "[8]; day 5", "value": 66.0, "unit": "pg/mL"}, {"measurement": "TNF", "setting": "[8]; day 5", "value": 28.8, "unit": "pg/mL"}, {"measurement": "IL-1", "setting": "[8]; day 6", "value": 56.8, "unit": "pg/mL"}, {"measurement": "TNF", "setting": "[8]; day 6", "value": 38.4, "unit": "pg/mL"}, {"measurement": "IL-1", "setting": "[8]; day 7", "value": 10.2, "unit": "pg/mL"}, {"measurement": "TNF", "setting": "[8]; day 7", "value": 33, "unit": "pg/mL"}, {"measurement": "IL-1", "setting": "[8]; day 12", "value": 7.4, "unit": "pg/mL"}, {"measurement": "TNF", "setting": "[8]; day 12", "value": 19.6, "unit": "pg/mL"}, {"measurement": "IL-1", "setting": "[8]; day -1", "value": 6.8, "unit": "pg/mL"}, {"measurement": "TNF", "setting": "[8]; day -1", "value": 18.4, "unit": "pg/mL"}, {"measurement": "toxicity to control groups", "setting": "[9]", "value": "not toxic"}, {"measurement": "survival", "setting": "[9]; of 6 guinea pigs", "value": 6}, {"measurement": "survival", "setting": "[10]", "value": 80, "unit": "%"}, {"measurement": "death", "setting": "[10]; 58 mg/kg", "value": 4}, {"measurement": "Survival/total amount", "setting": "[11]; day 0", "value": "20/20"}, {"measurement": "Survival/total amount", "setting": "[11]; day 1", "value": "20/20"}, {"measurement": "Survival/total amount", "setting": "[11]; day 3", "value": "20/20"}, {"measurement": "Survival/total amount", "setting": "[11]; day 5", "value": "16/20"}, {"measurement": "Survival/total amount", "setting": "[11]; day 6", "value": "11/20"}, {"measurement": "Survival/total amount", "setting": "[11]; day 7", "value": "8/20"}, {"measurement": "Survival/total amount", "setting": "[11]; day 12", "value": "8/20"}, {"measurement": "Survival/total amount", "setting": "[11]; day -1", "value": "20/20"}]}]}
